What all share (assay): relative viability (nuclei count vs DMSO), 5 days (fraction); higher = more cells survive
Compound in test [1]: CC1=C(N=C(N=C1N)[C@H](CC(=O)N)NC[C@@H](C(=O)N)N)C(=O)N[C@@H]([C@H](C2=CN=CN2)OC3C(C(C(C(O3)CO)O)O)OC4C(C(C(C(O4)CO)O)OC(=O)N)O)C(=O)N[C@H](C)[C@H]([C@H](C)C(=O)N[C@@H]([C@@H](C)O)C(=O)NCCC5=NC(=CS5)C6=NC(=CS6)C(=O)NCCC[S+](C)C)O [Bleomycin] + Cc1cc(Nc2cc(N3CCN(C)CC3)nc(Sc3ccc(NC(=O)C4CC4)cc3)n2)n[nH]1 [Tozasertib] (partner 0.1 µM)
The settings on record: main component drawn. Put shortly:
(§1)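 For relative viability, nuclei counts in treated wells were divided by those in vehicle wells. Lung cancer cell lines had been pin-tool dosed in 1536-well plates the day after seeding and cultured for 5 days, then fixed and stained in one step (final 0.05% Triton X-100, 1% formaldehyde, 1 ug/ml Hoechst) and imaged at 4×. Doses were one drug alone or a fixed anchor-drug dose plus five library-drug doses (not always all listed) in √10 steps, and values are duplicate-plate medians.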

Compound in test [2]: COc1cc([C@@H]2c3cc4c(cc3[C@@H](O[C@@H]3O[C@@H]5CO[C@@H](C)O[C@H]5[C@H](O)[C@H]3O)[C@H]3COC(=O)[C@H]23)OCO4)cc(OC)c1O [Etoposide] + CC(C)C[C@H](NC(=O)[C@H](Cc1ccccc1)NC(=O)c1cnccn1)B(O)O [Bortezomib] (partner 0.002 µM)
Put shortly: as §1

Compound in test [3]: COc1cc([C@@H]2c3cc4c(cc3[C@@H](O[C@@H]3O[C@@H]5CO[C@@H](C)O[C@H]5[C@H](O)[C@H]3O)[C@H]3COC(=O)[C@H]23)OCO4)cc(OC)c1O [Etoposide] + Cc1nc(Nc2ncc(C(=O)Nc3c(C)cccc3Cl)s2)cc(N2CCN(CCO)CC2)n1 [Dasatinib] (partner 0.075 µM)
The method, boiled down: as §1

Compound in test [4]: COc1cc([C@@H]2c3cc4c(cc3[C@@H](O[C@@H]3O[C@@H]5CO[C@@H](C)O[C@H]5[C@H](O)[C@H]3O)[C@H]3COC(=O)[C@H]23)OCO4)cc(OC)c1O [Etoposide] + O=C(c1cc(Cc2n[nH]c(=O)c3ccccc23)ccc1F)N1CCN(C(=O)C2CC2)CC1 [Olaparib] (partner 8 µM)
Put shortly: as §1

Turning to UMC-11, the relative viability in test [1] (first compound 0.01 µM) came out at 0.185; in test [1] (first compound 0.03162 µM) it was 0.196; in test [1] (first compound 0.1 µM) it was 0.208; in test [1] (first compound 0.3162 µM), 0.203; in test [1] (first compound 1 µM), 0.18; in test [2] (first compound 0.01 µM) it was 0.685. In addition, the relative viability in test [2] (first compound 0.03162 µM) is 0.777; in test [2] (first compound 0.3162 µM) it was 0.389; in test [2] (first compound 1 µM) it was 0.187; in test [3] (first compound 0.01 µM), 0.455; in test [3] (first compound 0.03162 µM), 0.38; in test [3] (first compound 0.1 µM), 0.316. For the same cell line, the relative viability in test [3] (first compound 0.3162 µM) was 0.38; in test [3] (first compound 1 µM) it was 0.259; in test [4] (first compound 0.01 µM), 0.326; in test [4] (first compound 0.03162 µM) it was 0.331; in test [4] (first compound 0.1 µM), 0.311; in test [4] (first compound 0.3162 µM) it was 0.27. Moreover, the relative viability in test [4] (first compound 1 µM) came to 0.28.

The values above are taken from the supplement of paper PMC10307832.
